According to patent publication US9951010B2, “Compounds as CRTH2 antagonist and uses thereof” (SUNSHINE LAKE PHARMA CO., LTD., priority 2014, dated 2018):
Counter-ions that a name gives are not always drawn.

Target: T1, CRTH2 receptor (Homo sapiens, UniProt Q9Y5Y4)
T1 construct: expressed in transfected cells; host or cells: CHO-K1/G cells
T1 sequence (Q9Y5Y4 1-395): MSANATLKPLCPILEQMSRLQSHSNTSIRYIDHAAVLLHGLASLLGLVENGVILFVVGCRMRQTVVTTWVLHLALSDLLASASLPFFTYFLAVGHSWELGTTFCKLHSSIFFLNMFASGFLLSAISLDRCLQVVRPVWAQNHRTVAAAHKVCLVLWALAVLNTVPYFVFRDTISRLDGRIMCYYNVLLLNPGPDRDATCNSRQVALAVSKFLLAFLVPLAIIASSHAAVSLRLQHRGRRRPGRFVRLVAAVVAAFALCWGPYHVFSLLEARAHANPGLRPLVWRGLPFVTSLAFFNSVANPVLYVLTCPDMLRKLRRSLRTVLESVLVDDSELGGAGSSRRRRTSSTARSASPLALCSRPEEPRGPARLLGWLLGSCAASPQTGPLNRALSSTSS
Assay: FLIPR detection of inhibitory activity against CRTH2 (CHO-K1/G cells, PGD2 as agonist)
Format: cell-based
Conditions: CHO-K1/G cells with stable expression of CRTH2 receptor, PGD2 at EC80, FLIPR
Protocol: The test compound was weighed accurately and then dissolved in a suitable amount of DMSO to prepare a stock solution at a concentration of 10 mM; after clear and transparent, the stock solution was subpackaged and cryostoraged at −20° C. for use. Before testing, the test compound was diluted with balanced salt solution (HBSS buffer, containing 4-(2-hydroxyethyl)piperazine-1-ethanesulfonicacid) at a concentration of 20 mM) to 5 times testing concentration.
CHO-K1/G cells with stable expression of CRTH2 receptor were prepared to 5 times testing concentration and seeded into 384-microwell plate, and incubated in an incubator at 37° C./5% CO2. After incubating for 18 hours, to the cells in 384-microwell plate was added 20 μL of dye followed by the addition of 10 μL of prepared test compound solution. And then the cell plate was incubated in the incubator at 37° C./5% CO2 for 1 hour, at last which was balanced at rt for 15 min. After adding 12.5 μL of positive agonist (PGD2) at a concentration of 5 times EC80 to each well of the cell plate, the RFU (fluorescence intensity) value of the test compound was detected.
The data were recorded from ScreenWorks (version 3.1), and collected and analyzed by using Excel and GraphPad Prism 6 software to calculate the values of IC50.

SMILES | IC50
Cc1c(C2CCC(N(C)C(=O)c3ccc4ccccc4n3)CC2)c2cc(F)ccc2n1CC(=O)O (single isomer, unassigned) [Example 17a, 2-(5-fluoro-2-methyl-3-(4-(N-methylquinoline-2-carboxamido)cyclohexyl)-1H-indol-1-yl)acetic acid hydrochloride] | 600 nM
Cc1c(C2CCC(N(C)C(=O)c3ccc4ccccc4n3)CC2)c2cc(F)ccc2n1CC(=O)O (single isomer, unassigned) [Example 17b, 2-(5-fluoro-2-methyl-3-(4-(N-methylquinoline-2-carboxamido)cyclohexyl)-1H-indol-1-yl)acetic acid hydrochloride] | 97.2 nM
Cc1c(C2CCC(NC(=O)c3ccc4cccnc4n3)CC2)c2cc(F)ccc2n1CC(=O)O (single isomer, unassigned) [Example 20, 2-(3-(4-(1,8-naphthyridine-2-carboxamido)cyclohexyl)-5-fluoro-2-methyl-1H-indol-1-yl)acetic acid hydrochloride] | 39.8 nM
Cc1c(C2CCC(NC(=O)c3cccc4ncccc34)CC2)c2cc(F)ccc2n1CC(=O)O (single isomer, unassigned) [Example 26b, 2-(5-fluoro-2-methyl-3-(4-(quinoline-5-carboxamido)cyclohexyl)-1H-indol-1-yl)acetic acid hydrochloride] | 83.9 nM
O=C(O)Cn1cc(C2CCN(S(=O)(=O)c3ccc(F)cc3)CC2)c2ccccc21 [Control compound, reference compound] | 6190 nM
Cc1c(C2CCN(C(=O)c3cccc4ccccc34)CC2)c2cc(F)ccc2n1CC(=O)O [Example 2, 2-(3-(1-(1-naphthoyl)piperidin-4-yl)-5-fluoro-2-methyl-1H-indol-1-yl)acetic acid] | 674 nM
Cc1c(C2CCC(NC(=O)c3cccc4ccccc34)CC2)c2cc(F)ccc2n1CC(=O)O (stereo not drawn) [Example 3, 2-(3-(4-(1-naphthamido)cyclohexyl)-5-fluoro-2-methyl-1H-indol-1-yl)acetic acid] | 265 nM
Cc1c(C2CCN(C(=O)c3ccc4ccccc4n3)CC2)c2cc(F)ccc2n1CC(=O)O [Example 4, 2-(5-fluoro-2-methyl-3-(1-(quinoline-2-carbonyl)piperidin-4-yl)-1H-indol-1-yl)acetic acid hydrochloride] | 306 nM
Cc1c(C2=CCCN(C(=O)c3ccc4ccccc4n3)C2)c2cc(F)ccc2n1CC(=O)O [Example 7, 2-(5-fluoro-2-methyl-3-(1-(quinoline-2-carbonyl)-1,2,5,6-tetrahydropyridin-3-yl)-1H-indol-1-yl)acetic acid hydrochloride] | 776 nM
Cc1c(C2=CCN(Cc3ccc4ccccc4n3)CC2)c2cc(F)ccc2n1CC(=O)O [Example 8, 2-(5-fluoro-2-methyl-3-(1-(quinolin-2-yl)methyl-1,2,3,6-tetrahydropyridin-4-yl)-1H-indol-1-yl)acetic acid dihydrochloride] | 657 nM
Cc1c(C2=CCN(C(=O)NCc3ccc(F)cc3F)CC2)c2cc(F)ccc2n1CC(=O)O [Example 9a, 2-(3-(1-((2,4-difluorobenzyl)carbamoyl)-1,2,3,6-tetrahydropyridin-4-yl)-5-fluoro-2-methyl-1H-indol-1-yl)acetic acid] | 192 nM
Cc1c(C2CCC(NC(=O)c3cccc4c(F)cccc34)CC2)c2cc(F)ccc2n1CC(=O)O (stereo not drawn) [Example 10, 2-(5-fluoro-3-(4-(5-fluoro-1-naphthamido)cyclohexyl)-2-methyl-1H-indol-1-yl)acetic acid] | 545 nM
Cc1c(C2CCC(NC(=O)NCc3ccc(F)cc3F)CC2)c2cc(F)ccc2n1CC(=O)O (stereo not drawn) [Example 16, 2-(3-(4-(3-(2,4-difluorobenzyl)ureido)cyclohexyl)-5-fluoro-2-methyl-1H-indol-1-yl)acetic acid] | 969 nM
Cc1c(C2CC(NC(=O)c3ccc4ccccc4n3)C2)c2cc(F)ccc2n1CC(=O)O (stereo not drawn) [Example 21, 2-(5-fluoro-2-methyl-3-(3-(quinoline-2-carboxamido)cyclobutyl)-1H-indol-1-yl)acetic acid hydrochloride] | 185 nM
Cc1c(C2=CCCN(C(=O)c3cccc4ccccc34)C2)c2cc(F)ccc2n1CC(=O)O [Example 23, 2-(3-(1-(1-naphthoyl)-1,2,5,6-tetrahydropyridin-3-yl)-5-fluoro-2-methyl-1H-indol-1-yl)acetic acid] | 866 nM

Further lines, results first:

IC50 | SMILES
79.5 nM | Cc1c(C2CCC(NS(=O)(=O)c3ccc(F)cc3F)CC2)c2cc(F)ccc2n1CC(=O)O (single isomer, unassigned) [Example 29b, 2-(3-(4-(2,4-difluorophenylsulfonamido)cyclohexyl)-5-fluoro-2-methyl-1H-indol-1-yl)acetic acid]
138 nM | Cc1c(C2CCC(N(C)S(=O)(=O)c3ccc(F)cc3)CC2)c2cc(F)ccc2n1CC(=O)O (stereo not drawn) [Example 28, 2-(5-fluoro-3-(4-(4-fluoro-N-methylphenylsulfonamido)cyclohexyl)-2-methyl-1H-indol-1-yl) acetic acid]
33.7 nM | Cc1c(C2CC(NS(=O)(=O)c3ccc(F)cc3)C2)c2cc(F)ccc2n1CC(=O)O (stereo not drawn) [Example 32, 2-(5-fluoro-3-(3-(4-fluorophenylsulfonamido)cyclobutyl)-2-methyl-1H-indol-1-yl)acetic acid]
211 nM | Cc1c(C2CCN(S(=O)(=O)c3ccc(Cl)cc3F)CC2)c2cc(F)ccc2n1CC(=O)O [Example 34, 2-(5-fluoro-3-(1-((4-chloro-2-fluorophenyl)sulfonyl)piperidin-4-yl)-2-methyl-1H-indol-1-yl) acetic acid]
333 nM | Cc1c(C2CCN(S(=O)(=O)c3ccc(F)cc3Cl)CC2)c2cc(F)ccc2n1CC(=O)O [Example 35, 2-(5-fluoro-3-(1-((2-chloro-4-fluorophenyl)sulfonyl)piperidin-4-yl)-2-methyl-1H-indol-1-yl) acetic acid]
422 nM | Cc1c(C2CCN(S(=O)(=O)c3ccc(Cl)cc3Cl)CC2)c2cc(F)ccc2n1CC(=O)O [Example 36, 2-(5-fluoro-3-(1-((2,4-dichlorophenyl)sulfonyl)piperidin-4-yl)-2-methyl-1H-indol-1-yl)acetic acid]
137 nM | Cc1c(C2CCN(S(=O)(=O)c3ccc(O)cc3)CC2)c2cc(F)ccc2n1CC(=O)O [Example 37, 2-(5-fluoro-3-(1-((4-hydroxyphenyl)sulfonyl)piperidin-4-yl)-2-methyl-1H-indol-1-yl)acetic acid]
106 nM | Cc1c(C2CCN(S(=O)(=O)c3ccccc3F)CC2)c2cc(F)ccc2n1CC(=O)O [Example 39, 2-(5-fluoro-3-(1-((2-fluorophenyl)sulfonyl)piperidin-4-yl)-2-methyl-1H-indol-1-yl)acetic acid]
17.4 nM | Cc1c(C2CCCN(S(=O)(=O)c3ccc(F)cc3)C2)c2cc(F)ccc2n1CC(=O)O (stereo not drawn) [Example 40, 2-(5-fluoro-3-(1-((4-fluorophenyl)sulfonyl)piperidin-3-yl)-2-methyl-1H-indol-1-yl)acetic acid]
283 nM | Cc1c(C2CCN(S(=O)(=O)c3cccc4ccccc34)CC2)c2cc(F)ccc2n1CC(=O)O [Example 42, 2-(5-fluoro-2-methyl-3-(1-(naphthalen-1-ylsulfonyl)piperidin-4-yl)-1H-indol-1-yl)acetic acid]
317 nM | Cc1c(C2CCN(S(=O)(=O)c3ccccc3)CC2)c2cc(F)ccc2n1CC(=O)O [Example 46, 2-(5-fluoro-2-methyl-3-(1-(phenylsulfonyl)piperidin-4-yl)-1H-indol-1-yl)acetic acid]
139 nM | Cc1c(C2CCN(S(=O)(=O)c3ccc(Cl)cc3)CC2)c2cc(F)ccc2n1CC(=O)O [Example 47, 2-(3-(1-((4-chlorophenyl)sulfonyl)piperidin-4-yl)-5-fluoro-2-methyl-1H-indol-1-yl)acetic acid]
